Assay results reported in patent EP0537993A1, “Nicotinic activity of a series of arecolones and isoarecolones” (ELI LILLY AND COMPANY, priority 1991, dated 1993).
Structures can show the parent of a compound that is named as a salt.

What was measured:
[1] = tested on: nicotinic and muscarinic receptors; details: cited from earlier work
[2] = tested on: rats; details: cited from earlier work
[3] = target: muscarinic receptors; experiment: Inhibition of 3H-oxotremorine-M binding to hippocampal membranes; details: [3H]oxotremorine ([3H]OXO) binding, muscarinic receptor affinity, rat membranes
Method: The hippocampus from male Sprague-Dawley rats was homogenized in 10 volumes of 0.32 M sucrose, centrifuged at 1000 x g for 10 min, and the supernatant was centrifuged at 17,000 x g for 20 min. The synaptosoma! fraction (P₂) pellet was homogenized in 50 volumes of 20 mM Tris-Cl buffer, pH 7.4, and centrifuged at 50,000 x g for 10 min. After resuspension in buffer, the suspension was preincubated for 30 min at 4 °C, and centrifuged again. The pellet was resuspended in 3 volumes of buffer and frozen at -70 °C until used.
For oxotremorine-M binding, the homogenates were incubated at 25 °C for 15 min. After incubation, the homogenates were filtered through Whatman GF/C filters with vacuum. The filters were rinsed 3X with 1 mL of cold buffer and placed in scintillation vials containing Ready Protein+ (Beckman) scintillation fluid. Radioactivity trapped on the filters was determined by liquid scintillation spectrometry. Non specific binding was determined using 1 µM atropine.
The concentration of compound required to inhibit binding 50% (IC₅₀) was calculated using the ALLFIT program.

[4] = target: nicotinic receptors (Rattus norvegicus, UniProt P09483+P12390); experiment: [3H]N-methyl-carbamyl choline ([3H]MCC) binding to rat brain cortical membranes; details: selectivity for nicotinic over muscarinic receptors
Method: Binding to rat brain nicotinic receptors was performed using the method of Abood and Grassi. Abood, L.E. et al., Biochem. Pharmacol. 35:4199-4202 (1987). Frozen rat brain cortices (Pel-Freez Biologicals, Roger, AR) were homogenized using a Polytron (Binkmann PT-10; setting 6 for 15 sec) in 30 volumes of buffer (50 mM tris, 120 mM sodium chloride, 5 mM potassium chloride, 2 mM calcium chloride, 1 mM magnesium chloride, pH 7.3 at 4°C). The homogenate was centrifuged at 1,000 xg for 10 min. (Sorval RC-5B; SA600 rotor). The supernatant was then centrifuged at 40,000 xg for 20 min. The final pellet was resuspended in buffer at a concentration of 12 vol./gram wet weight of tissue. Final protein concentrations for each assay were determined using the Lowry et al. method. Lowry, O.H. et al., J. Biol. Chem. 193:265-275 (1951).
[³H]N-Methyl-carbamyl choline iodide ([³H]MCC) binding to rat cortices was measured by filtration. Compounds dissolved in distilled water at concentrations of 1 nM to 1 mM, were incubated with [³H]MCC (1 nM), membrane aliquots (approximately 1.5 mg./ml. protein) and buffer, in a final volume of 0.5 ml. […] Nonspecific [³H]MCC binding was determined in the presence of 10 mM nicotine. […]
Radioactivity bound was determined after a period of equilibration (at least 5 hr) in Beckman Ready Protein Scintillation Cocktail using a Beckman LS5000 TA counter with an efficiency of 43%. […]

Sequence of nicotinic receptors (P09483 31-630): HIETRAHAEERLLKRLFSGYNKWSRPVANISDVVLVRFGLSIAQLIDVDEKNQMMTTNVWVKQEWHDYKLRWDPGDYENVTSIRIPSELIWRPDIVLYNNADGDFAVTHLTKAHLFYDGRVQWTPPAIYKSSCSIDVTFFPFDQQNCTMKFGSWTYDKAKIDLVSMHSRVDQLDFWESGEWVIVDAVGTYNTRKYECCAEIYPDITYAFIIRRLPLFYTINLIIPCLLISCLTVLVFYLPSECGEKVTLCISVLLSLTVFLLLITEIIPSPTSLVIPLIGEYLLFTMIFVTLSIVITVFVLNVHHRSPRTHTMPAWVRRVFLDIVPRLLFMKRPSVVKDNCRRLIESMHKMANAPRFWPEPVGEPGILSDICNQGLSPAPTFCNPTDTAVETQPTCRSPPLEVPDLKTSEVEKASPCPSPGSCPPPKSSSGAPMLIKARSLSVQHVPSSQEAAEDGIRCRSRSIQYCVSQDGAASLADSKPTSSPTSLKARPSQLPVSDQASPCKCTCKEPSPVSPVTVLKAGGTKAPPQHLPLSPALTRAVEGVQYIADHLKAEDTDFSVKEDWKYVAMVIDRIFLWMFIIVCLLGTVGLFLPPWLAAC
Sequence of nicotinic receptors (P12390 25-500): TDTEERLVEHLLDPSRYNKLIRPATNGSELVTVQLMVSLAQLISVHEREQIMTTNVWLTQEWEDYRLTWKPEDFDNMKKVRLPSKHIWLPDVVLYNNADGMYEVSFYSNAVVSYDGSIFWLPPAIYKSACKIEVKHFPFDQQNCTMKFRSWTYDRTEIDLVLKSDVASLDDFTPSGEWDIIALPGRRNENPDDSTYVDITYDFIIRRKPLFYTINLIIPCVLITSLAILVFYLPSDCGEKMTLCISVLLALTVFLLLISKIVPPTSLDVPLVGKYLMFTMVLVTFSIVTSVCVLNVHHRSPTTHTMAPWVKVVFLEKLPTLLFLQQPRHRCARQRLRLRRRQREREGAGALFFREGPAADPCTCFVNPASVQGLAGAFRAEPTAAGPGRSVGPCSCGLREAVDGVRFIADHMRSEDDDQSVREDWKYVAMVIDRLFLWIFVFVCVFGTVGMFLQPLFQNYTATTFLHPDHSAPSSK

Molecule	agonist which binds to nicotinic and muscarinic receptors [1]	nicotine-like discriminative stimulus effects [2]	Ki [3]	Ki Ratio OXO/MCC [4]
1-methyl-4-acetyl-1,2,3,6-tetrahydropyridine [isoarecolone methiodide]	very potent agonist	produce nicotine-like discriminative stimulus effects	–	–
CCC(C)C(=O)C1=CCN(C)CC1 (stereo not drawn) [Example 11, 1-(1,2,3.6-Tetrahydro-1-methyl-4-pyridinyl)-2-methylbutanone]	–	–	4.79 µM	–
CN1CC=C(C(=O)C(C)(C)C)CC1 [Example 12, 1-(1,2,3,6-Tetrahydro-1-methyl-4-pyridinyl)-2,2-dimethylpropanone]	–	–	6.25 µM	110
CC(=O)C1=CCN(C)CC1 [isoarecolone HCl]	–	produce nicotine-like discriminative stimulus effects	–	–
